Results reported in the supplement of paper PMC10307832.

Columns and labels:
Assay in all cases: relative viability (nuclei count vs DMSO), 5 days (fraction); higher = more cells survive
LCLC-103H = test system: LCLC-103H
Summary of the method: (§1)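 Relative viability is defined as nuclei in treated wells over nuclei in vehicle wells. Duplicate plates were run and medians reported. Lung cancer cell lines in 1536-well plates were dosed by pin tool one day after seeding, with one drug or with a fixed anchor-drug dose plus five library-drug doses (not always all listed) in √10 steps, and nuclei were counted after 5 days.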

NCI-H2126 = test system: NCI-H2126
Summary of the method: as §1

NCI-H2347 = test system: NCI-H2347
Summary of the method: as §1

NCI-H1395 = test system: NCI-H1395
Summary of the method: as §1

CAL-12T = test system: CAL-12T
Summary of the method: as §1

ABC-1 = test system: ABC-1
Summary of the method: as §1

LU99A = test system: LU99A
Summary of the method: as §1

HCC-827 = test system: HCC-827
Summary of the method: as §1

RERF-LC-KJ = test system: RERF-LC-KJ
Summary of the method: as §1

SK-LU-1 = test system: SK-LU-1
Summary of the method: as §1

NCI-H1755 = test system: NCI-H1755
Summary of the method: as §1

LXF-289 = test system: LXF-289
Summary of the method: as §1

HCC-44 = test system: HCC-44
Summary of the method: as §1

NCI-H1944 = test system: NCI-H1944
Summary of the method: as §1

NCI-H1792 = test system: NCI-H1792
Summary of the method: as §1

ChaGo-K-1 = test system: ChaGo-K-1
Summary of the method: as §1

NCI-H322M = test system: NCI-H322M
Summary of the method: as §1

NCI-H520 = test system: NCI-H520
Summary of the method: as §1

NCI-H3122 = test system: NCI-H3122
Summary of the method: as §1

NCI-H1666 = test system: NCI-H1666
Summary of the method: as §1

NCI-H358 = test system: NCI-H358
Summary of the method: as §1

NCI-H1793 = test system: NCI-H1793
Summary of the method: as §1

## CN1CCN(CCOc2cc(OC3CCOCC3)c3c(Nc4c(Cl)ccc5c4OCO5)ncnc3c2)CC1 [Saracatinib] + O=C(c1cc(Cc2n[nH]c(=O)c3ccccc23)ccc1F)N1CCN(C(=O)C2CC2)CC1 [Olaparib] (partner 8 µM)
LCLC-103H; first compound 0.02 µM
  relative viability: 0.796
LCLC-103H; first compound 0.2 µM
  relative viability: 0.71
LCLC-103H; first compound 0.6325 µM
  relative viability: 0.758
LCLC-103H; first compound 2 µM
  relative viability: 0.807
NCI-H2126; first compound 0.02 µM
  relative viability: 0.886
NCI-H2126; first compound 0.2 µM
  relative viability: 0.924
NCI-H2126; first compound 0.6325 µM
  relative viability: 0.923
NCI-H2126; first compound 2 µM
  relative viability: 0.763
NCI-H2347; first compound 0.02 µM
  relative viability: 0.571
NCI-H2347; first compound 0.2 µM
  relative viability: 0.428
NCI-H2347; first compound 0.6325 µM
  relative viability: 0.622
NCI-H2347; first compound 2 µM
  relative viability: 0.551
NCI-H1395; first compound 0.02 µM
  relative viability: 0.497
NCI-H1395; first compound 0.2 µM
  relative viability: 0.488
NCI-H1395; first compound 0.6325 µM
  relative viability: 0.409
NCI-H1395; first compound 2 µM
  relative viability: 0.436
CAL-12T; first compound 0.02 µM
  relative viability: 0.787
CAL-12T; first compound 0.2 µM
  relative viability: 0.682
CAL-12T; first compound 0.6325 µM
  relative viability: 0.825
CAL-12T; first compound 2 µM
  relative viability: 0.701
ABC-1; first compound 0.02 µM
  relative viability: 0.568
ABC-1; first compound 0.2 µM
  relative viability: 0.941
ABC-1; first compound 0.6325 µM
  relative viability: 0.706
ABC-1; first compound 2 µM
  relative viability: 0.751
LU99A; first compound 0.02 µM
  relative viability: 0.278
LU99A; first compound 0.2 µM
  relative viability: 0.194
LU99A; first compound 0.6325 µM
  relative viability: 0.282
LU99A; first compound 2 µM
  relative viability: 0.256
HCC-827; first compound 0.02 µM
  relative viability: 0.66
HCC-827; first compound 0.2 µM
  relative viability: 0.532
HCC-827; first compound 0.6325 µM
  relative viability: 0.192
HCC-827; first compound 2 µM
  relative viability: 0.16
RERF-LC-KJ; first compound 0.02 µM
  relative viability: 1.09
RERF-LC-KJ; first compound 0.2 µM
  relative viability: 0.841
RERF-LC-KJ; first compound 0.6325 µM
  relative viability: 0.9
RERF-LC-KJ; first compound 2 µM
  relative viability: 0.977
SK-LU-1; first compound 0.02 µM
  relative viability: 0.416
SK-LU-1; first compound 0.2 µM
  relative viability: 0.359
SK-LU-1; first compound 0.6325 µM
  relative viability: 0.33
SK-LU-1; first compound 2 µM
  relative viability: 0.28
NCI-H1755; first compound 0.02 µM
  relative viability: 0.876
NCI-H1755; first compound 0.2 µM
  relative viability: 0.751
NCI-H1755; first compound 0.6325 µM
  relative viability: 0.872
NCI-H1755; first compound 2 µM
  relative viability: 0.786
LXF-289; first compound 0.02 µM
  relative viability: 1.07
LXF-289; first compound 0.2 µM
  relative viability: 0.916
LXF-289; first compound 0.6325 µM
  relative viability: 1.09
LXF-289; first compound 2 µM
  relative viability: 1.04
HCC-44; first compound 0.02 µM
  relative viability: 0.979
HCC-44; first compound 0.2 µM
  relative viability: 0.863
HCC-44; first compound 0.6325 µM
  relative viability: 0.97
HCC-44; first compound 2 µM
  relative viability: 0.976
NCI-H1944; first compound 0.02 µM
  relative viability: 0.406
NCI-H1944; first compound 0.2 µM
  relative viability: 0.344
NCI-H1944; first compound 0.6325 µM
  relative viability: 0.44
NCI-H1944; first compound 2 µM
  relative viability: 0.358
NCI-H1792; first compound 0.02 µM
  relative viability: 0.537
NCI-H1792; first compound 0.2 µM
  relative viability: 0.352
NCI-H1792; first compound 0.6325 µM
  relative viability: 0.644
NCI-H1792; first compound 2 µM
  relative viability: 0.385
ChaGo-K-1; first compound 0.02 µM
  relative viability: 0.423
ChaGo-K-1; first compound 0.2 µM
  relative viability: 0.28
ChaGo-K-1; first compound 0.6325 µM
  relative viability: 0.413
ChaGo-K-1; first compound 2 µM
  relative viability: 0.449
NCI-H322M; first compound 0.02 µM
  relative viability: 0.769
NCI-H322M; first compound 0.2 µM
  relative viability: 0.492
NCI-H322M; first compound 0.6325 µM
  relative viability: 0.636
NCI-H322M; first compound 2 µM
  relative viability: 0.402
NCI-H520; first compound 0.02 µM
  relative viability: 0.354
NCI-H520; first compound 0.2 µM
  relative viability: 0.327
NCI-H520; first compound 0.6325 µM
  relative viability: 0.289
NCI-H520; first compound 2 µM
  relative viability: 0.243
NCI-H3122; first compound 0.02 µM
  relative viability: 0.62
NCI-H3122; first compound 0.2 µM
  relative viability: 0.485
NCI-H3122; first compound 0.6325 µM
  relative viability: 0.682
NCI-H3122; first compound 2 µM
  relative viability: 0.528
NCI-H1666; first compound 0.02 µM
  relative viability: 0.722
NCI-H1666; first compound 0.2 µM
  relative viability: 0.696
NCI-H1666; first compound 0.6325 µM
  relative viability: 0.974
NCI-H1666; first compound 2 µM
  relative viability: 0.995
NCI-H358; first compound 0.02 µM
  relative viability: 0.527
NCI-H358; first compound 0.2 µM
  relative viability: 0.529
NCI-H358; first compound 0.6325 µM
  relative viability: 0.272
NCI-H358; first compound 2 µM
  relative viability: 0.324
NCI-H1793; first compound 0.02 µM
  relative viability: 0.872
NCI-H1793; first compound 0.2 µM
  relative viability: 0.498
NCI-H1793; first compound 0.6325 µM
  relative viability: 0.777
NCI-H1793; first compound 2 µM
  relative viability: 0.564
